Results from paper PMC8048867 (Chemmedchem, 2020).
“And” between values parts separate entries of the source, which are not always exact repeats. Equal values may be shown once.

What was measured:
ADAM10 = target: T1, ADAM10 (Homo sapiens, UniProt O14672); assay: off-target proteinase inhibition ADAM10; assay type: biochemical; settings: read-out: Relative enzyme activity ADAM10
T1 sequence (O14672 214-748): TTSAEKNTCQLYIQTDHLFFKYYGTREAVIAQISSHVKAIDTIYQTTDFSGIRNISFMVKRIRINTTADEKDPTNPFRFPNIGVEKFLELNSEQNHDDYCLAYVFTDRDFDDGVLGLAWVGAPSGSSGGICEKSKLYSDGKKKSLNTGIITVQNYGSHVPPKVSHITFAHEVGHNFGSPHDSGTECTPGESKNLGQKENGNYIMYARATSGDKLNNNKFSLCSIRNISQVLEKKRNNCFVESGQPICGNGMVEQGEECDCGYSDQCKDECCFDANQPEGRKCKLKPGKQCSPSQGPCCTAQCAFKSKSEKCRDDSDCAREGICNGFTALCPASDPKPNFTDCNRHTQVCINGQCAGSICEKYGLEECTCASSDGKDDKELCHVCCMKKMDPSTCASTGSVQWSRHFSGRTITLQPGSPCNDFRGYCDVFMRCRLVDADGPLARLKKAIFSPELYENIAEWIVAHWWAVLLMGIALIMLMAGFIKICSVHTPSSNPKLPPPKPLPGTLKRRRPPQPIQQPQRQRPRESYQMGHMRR

ADAM17 = ADAM17 (Homo sapiens, UniProt P78536); assay: off-target proteinase inhibition ADAM17; assay type: biochemical; settings: read-out: Relative enzyme activity ADAM17
[1] = target: T2, recombinant human meprin α (Homo sapiens, UniProt Q16819); assay: meprin α inhibition, quenched fluorogenic peptide substrate assay; assay type: biochemical; settings: for SF: selectivity factor (K i app meprin β/K i app meprin α): meprin α over meprin β
T2 sequence (Q16819 66-746): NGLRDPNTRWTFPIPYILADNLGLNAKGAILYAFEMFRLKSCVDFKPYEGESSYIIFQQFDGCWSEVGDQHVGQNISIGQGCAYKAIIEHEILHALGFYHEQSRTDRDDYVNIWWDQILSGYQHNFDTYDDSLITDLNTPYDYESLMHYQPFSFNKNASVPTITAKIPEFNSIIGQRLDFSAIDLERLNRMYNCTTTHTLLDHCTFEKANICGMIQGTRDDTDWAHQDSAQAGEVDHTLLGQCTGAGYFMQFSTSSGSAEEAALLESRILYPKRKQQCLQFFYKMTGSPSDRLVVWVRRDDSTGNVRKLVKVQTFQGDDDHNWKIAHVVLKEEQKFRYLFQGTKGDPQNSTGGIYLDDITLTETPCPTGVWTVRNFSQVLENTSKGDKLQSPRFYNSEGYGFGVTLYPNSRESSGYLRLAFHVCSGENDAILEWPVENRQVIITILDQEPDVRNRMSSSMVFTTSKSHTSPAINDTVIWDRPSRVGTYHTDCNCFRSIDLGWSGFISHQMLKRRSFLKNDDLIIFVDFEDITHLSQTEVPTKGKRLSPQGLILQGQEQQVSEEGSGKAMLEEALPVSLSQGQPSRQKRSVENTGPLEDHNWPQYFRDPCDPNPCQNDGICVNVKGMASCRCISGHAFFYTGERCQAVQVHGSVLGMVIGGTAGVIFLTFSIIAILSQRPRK

cell-viability assay [2] = assay type: cell-based; settings: human, SH-SY5Y cells
[3] = target: T3, recombinant human meprin β (Homo sapiens, UniProt Q16820); assay: meprin β inhibition, quenched fluorogenic peptide substrate assay; assay type: biochemical
T3 sequence (Q16820 62-701): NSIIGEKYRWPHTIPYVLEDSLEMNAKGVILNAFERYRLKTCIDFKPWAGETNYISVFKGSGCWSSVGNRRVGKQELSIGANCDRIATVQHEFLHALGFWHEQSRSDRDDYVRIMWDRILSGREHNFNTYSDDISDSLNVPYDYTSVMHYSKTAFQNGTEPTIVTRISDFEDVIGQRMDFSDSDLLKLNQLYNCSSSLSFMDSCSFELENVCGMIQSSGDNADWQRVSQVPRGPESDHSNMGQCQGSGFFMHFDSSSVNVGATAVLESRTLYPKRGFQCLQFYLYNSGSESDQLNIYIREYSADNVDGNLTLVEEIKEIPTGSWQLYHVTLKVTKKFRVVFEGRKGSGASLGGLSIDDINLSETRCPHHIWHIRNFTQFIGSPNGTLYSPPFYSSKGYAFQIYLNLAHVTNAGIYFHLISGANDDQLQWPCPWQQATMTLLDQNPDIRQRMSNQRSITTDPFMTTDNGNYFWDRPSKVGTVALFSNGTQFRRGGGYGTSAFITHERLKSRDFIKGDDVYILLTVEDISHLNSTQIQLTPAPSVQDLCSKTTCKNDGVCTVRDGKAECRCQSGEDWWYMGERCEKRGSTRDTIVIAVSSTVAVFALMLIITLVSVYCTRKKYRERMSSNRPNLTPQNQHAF

MMP13 = MMP13 (Homo sapiens, UniProt P45452); assay: off-target proteinase inhibition MMP13; assay type: biochemical; settings: read-out: Relative enzyme activity MMP13
MMP9 = MMP9 (Homo sapiens, UniProt P14780); assay: off-target proteinase inhibition MMP9; assay type: biochemical; settings: read-out: Relative enzyme activity MMP9
cell-viability assay [4] = assay type: cell-based; settings: human, Hep-G2 cells
MMP2 = target: T4, MMP2 (Homo sapiens, UniProt P08253); assay: off-target proteinase inhibition MMP2; assay type: biochemical; settings: read-out: Relative enzyme activity MMP2
T4 sequence (P08253 110-660): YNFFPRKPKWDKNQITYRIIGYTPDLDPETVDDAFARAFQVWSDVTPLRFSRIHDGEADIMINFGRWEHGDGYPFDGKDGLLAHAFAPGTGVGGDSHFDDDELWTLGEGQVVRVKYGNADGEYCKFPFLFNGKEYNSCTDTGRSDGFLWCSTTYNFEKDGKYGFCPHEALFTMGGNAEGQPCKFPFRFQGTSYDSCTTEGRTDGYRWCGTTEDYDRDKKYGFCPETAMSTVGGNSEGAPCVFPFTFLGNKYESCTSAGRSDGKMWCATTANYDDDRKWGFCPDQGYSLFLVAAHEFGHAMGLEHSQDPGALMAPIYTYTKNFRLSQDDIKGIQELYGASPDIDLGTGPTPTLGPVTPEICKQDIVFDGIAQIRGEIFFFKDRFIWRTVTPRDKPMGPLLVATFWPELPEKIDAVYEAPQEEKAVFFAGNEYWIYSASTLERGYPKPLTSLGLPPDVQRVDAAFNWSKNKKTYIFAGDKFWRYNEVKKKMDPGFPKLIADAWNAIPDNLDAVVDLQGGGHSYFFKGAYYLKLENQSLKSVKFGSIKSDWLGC

mouse ovastacin = target: T5, mouse ovastacin (Mus musculus, UniProt Q6HA09); assay: ovastacin inhibition, fluorogenic enzyme activity assay
T5 sequence (Q6HA09 86-435 limits assumed): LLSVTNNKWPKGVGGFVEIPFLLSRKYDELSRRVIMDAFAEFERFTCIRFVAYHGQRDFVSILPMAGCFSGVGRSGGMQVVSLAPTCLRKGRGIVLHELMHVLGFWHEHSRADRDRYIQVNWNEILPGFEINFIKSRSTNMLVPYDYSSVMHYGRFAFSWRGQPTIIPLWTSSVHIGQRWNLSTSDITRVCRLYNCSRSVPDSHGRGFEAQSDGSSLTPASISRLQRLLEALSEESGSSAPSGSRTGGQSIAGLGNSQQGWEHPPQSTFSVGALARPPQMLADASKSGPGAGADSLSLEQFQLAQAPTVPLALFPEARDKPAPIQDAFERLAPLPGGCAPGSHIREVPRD

Sequence of MMP9 (P14780 107-707 limits assumed): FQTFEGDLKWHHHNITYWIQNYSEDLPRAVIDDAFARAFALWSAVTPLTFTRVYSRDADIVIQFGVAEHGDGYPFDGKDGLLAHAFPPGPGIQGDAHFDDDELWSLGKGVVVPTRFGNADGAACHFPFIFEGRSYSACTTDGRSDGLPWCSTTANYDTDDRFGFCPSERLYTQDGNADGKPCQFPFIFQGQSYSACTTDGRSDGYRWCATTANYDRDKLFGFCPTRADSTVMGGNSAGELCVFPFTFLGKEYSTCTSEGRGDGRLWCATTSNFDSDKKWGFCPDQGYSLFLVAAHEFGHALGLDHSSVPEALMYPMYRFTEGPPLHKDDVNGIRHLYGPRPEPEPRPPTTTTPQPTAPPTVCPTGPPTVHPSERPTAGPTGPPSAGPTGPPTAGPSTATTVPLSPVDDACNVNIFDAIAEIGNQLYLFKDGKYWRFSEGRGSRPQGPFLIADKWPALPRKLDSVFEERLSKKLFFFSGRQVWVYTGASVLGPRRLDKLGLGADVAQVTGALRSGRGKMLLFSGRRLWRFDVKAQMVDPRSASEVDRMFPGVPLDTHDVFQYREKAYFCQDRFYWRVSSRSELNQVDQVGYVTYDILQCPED
Sequence of ADAM17 (P78536 215-824): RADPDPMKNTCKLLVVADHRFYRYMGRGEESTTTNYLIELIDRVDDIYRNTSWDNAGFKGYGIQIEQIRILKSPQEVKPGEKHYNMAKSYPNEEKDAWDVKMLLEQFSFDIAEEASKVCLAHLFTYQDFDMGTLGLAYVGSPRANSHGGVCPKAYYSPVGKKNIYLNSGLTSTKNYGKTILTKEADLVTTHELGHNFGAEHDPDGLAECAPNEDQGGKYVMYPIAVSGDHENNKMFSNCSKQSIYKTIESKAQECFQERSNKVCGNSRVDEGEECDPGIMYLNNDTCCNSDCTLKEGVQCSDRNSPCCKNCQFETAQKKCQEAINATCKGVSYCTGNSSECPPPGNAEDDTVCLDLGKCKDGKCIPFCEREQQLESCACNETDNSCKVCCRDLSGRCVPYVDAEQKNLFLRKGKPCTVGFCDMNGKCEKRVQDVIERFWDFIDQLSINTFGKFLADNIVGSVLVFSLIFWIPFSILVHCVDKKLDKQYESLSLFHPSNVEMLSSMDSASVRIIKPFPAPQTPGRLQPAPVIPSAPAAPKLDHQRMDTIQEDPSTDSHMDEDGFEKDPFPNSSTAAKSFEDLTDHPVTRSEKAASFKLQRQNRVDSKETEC

Row | SMILES | remaining activity at 10 µM (ADAM10) [%] | remaining activity at 200 µM (ADAM10) [%] | remaining activity at 10 µM (ADAM17) [%] | remaining activity at 200 µM (ADAM17) [%] | Ki [1] [nM] | SF: selectivity factor (K i app meprin β/K i app meprin α) [1] | viability at 24 h, 30 µM (cell-viability assay [2]) [%] | Ki [3] [nM] | remaining activity at 10 µM (MMP13) [%] | remaining activity at 200 µM (MMP13) [%] | remaining activity at 10 µM (MMP9) [%] | remaining activity at 200 µM (MMP9) [%] | viability at 24 h, 30 µM (cell-viability assay [4]) [%] | remaining activity at 10 µM (MMP2) [%] | remaining activity at 200 µM (MMP2) [%] | Ki (mouse ovastacin) [nM] | SF Meprin α: selectivity factor (K i app ovastacin/K i app meprin α) (mouse ovastacin) | SF Meprin β: selectivity factor (K i app ovastacin/K i app meprin β) (mouse ovastacin) | further results
1 | O=C(CCc1c(-c2ccccc2)noc1-c1ccccc1)NO [2 d, 3‐(3,5‐Diphenylisoxazol‐4‐yl)propanehydroxamic acid] | 75 | 21 | 75 | 24 | 31 | 435 | 123 | 13500 | 79 | 66 | 89 | 39 | 90 | 98 | 74 |  |  |  | 
2 | O=C(Cn1c(-c2ccccc2)nnc1-c1ccccc1)NO [2 g, 2‐(3,5‐Diphenyl‐1,2,4‐triazol‐4‐yl)ethanehydroxamic acid] | 89 | 83 | 90 | 56 | 66 | 132 | 99 | 8680 | 93 | 76 | 99 | 54 | 94 | 95 | 70 | 4880 | 74 | 0.6 | 
3 | O=C(Cn1c(-c2ccccc2)nc2ccccc21)NO [4 c, 2‐(2‐Phenylbenzimidazol‐1‐yl)ethanehydroxamic acid] | 87 | 76 | 92 | 56 | 163 | 10 | 94 | 1620 | 102 | 72 | 96 | 68 | 85 | 89 | 46 | 2090 | 13 | 1.3 | 
4 | O=C(Cc1c(-c2ccccc2)noc1-c1ccccc1)NO [2 c, 2‐(3,5‐Diphenylisoxazol‐4‐yl)ethanehydroxamic acid] | 80 | 22 | 62 | 9 |  | 200 and 203 | 96 | 813 | 80 | 31 | 86 | 16 | 85 | 87 | 34 | 66 | 17 | 0.1 | fold improvement in potency against meprin α compared to amine 1 d ([1]; compared to 1 d): 2000 fold; fold increase in activity against meprin α compared to 2 a ([1]; compared to pyrrole 2 a): 5 fold; fold increase in activity against meprin β compared to 2 a ([3]; compared to pyrrole 2 a): 5 fold
5 | O=C(CCc1c(-c2ccccc2)n[nH]c1-c1ccccc1)NO [2 f, 3‐(3,5‐Diphenyl‐1H‐pyrazol‐4‐yl)propanehydroxamic acid] | 66 | 12 | 76 | 27 | 76 | 106 | 93 | 8030 | 93 | 68 | 93 | 65 | 93 | 97 | 77 | 2420 | 32 | 0.3 | 
6 | O=C(Cc1c(-c2ccccc2)n[nH]c1-c1ccccc1)NO [2 e, 2‐(3,5‐Diphenyl‐1H‐pyrazol‐4‐yl)ethanehydroxamic acid] | 73 | 23 | 61 | 7 | 3 | 66 |  | 199 | 75 | 67 | 81 | 27 |  | 104 | 61 | 196 | 65 | 1 | 
